Experimental data reported in patent US5202324A, “Imidazopyridazines” (Takeda Chemical Industries, Ltd., priority 1989, dated 1993).

Tested on: bronchoconstriction induced by PAF
Experiment: Effect on bronchoconstriction induced by platelet activating factor (PAF) in guinea pigs (Konzett-Rossler method)
Type: in vivo, guinea pig (male Hartley)
Settings: Cavia porcellus, po, drug 30 mg/kg orally in 5% gum arabic solution 1 hour before PAF (1 μg/kg i.v.), recorded for 15 minutes
Procedure: Effect on Bronchoconstriction Induced by Platelet Activating Factor (PAF) in Guinea Pigs
Male Hartley guinea pigs (body weight 500 g) were used. The bronchoconstriction reaction in the guinea pig which has intravenously received PAF (1 μg/Kg) was measured by the Konzett-Rossler method. The trachea of the guinea pig with its back fixed was incised under anesthesia condition with urethane (intraperitoneal injection, 1.5 g/kg) and connected with an artificial respirator via a cannula. The branch of the tracheal cannula was connected with a transducer (7020 type, Ugobasile). Air was sent to the trachea at the volume of 3-7 ml/stroke, at the rate of 70 strokes/min. at load pressure of 10 cm H2 O to lung and overflowed air volume was recorded with Rectegraph (Recte-Hori-8s, Sanei Sokuki) via the transducer. After the guinea pig was treated with galamine (1 mg/kg, i.v.), PAF (1 μg/kg) dissolved in a physiological saline solution was administered to the guinea pig via a jugular venous cannula and the bronchoconstriction reaction induced thereby was recorded for 15 minutes. The drug (30 mg/kg) suspended in a 5% gum arabic solution was administered orally 1 hour before the injection of PAF.

Row | Structure (SMILES) | inhibition in vivo at 30 mg/kg
1 | CNS(=O)(=O)CCCSc1ccc2nccn2n1 [Example 3] | 41%
2 | O=S(=O)(CCCSc1ccc2nccn2n1)NC1CC1 [Example 6] | 47%
